Source: ChEMBL document CHEMBL3352315, “Biotransformation of huperzine A by a fungal endophyte of Huperzia serrata furnished sesquiterpenoid-alkaloid hybrids” (J Nat Prod, 2014)

target: Acetylcholinesterase (Homo sapiens, UniProt P22303); assay: Inhibition of acetylcholinesterase (unknown origin) assessed as inhibition of acetylcholine hydrolysis after 30 mins by Ellmann's method
Sequence (P22303 whole entry): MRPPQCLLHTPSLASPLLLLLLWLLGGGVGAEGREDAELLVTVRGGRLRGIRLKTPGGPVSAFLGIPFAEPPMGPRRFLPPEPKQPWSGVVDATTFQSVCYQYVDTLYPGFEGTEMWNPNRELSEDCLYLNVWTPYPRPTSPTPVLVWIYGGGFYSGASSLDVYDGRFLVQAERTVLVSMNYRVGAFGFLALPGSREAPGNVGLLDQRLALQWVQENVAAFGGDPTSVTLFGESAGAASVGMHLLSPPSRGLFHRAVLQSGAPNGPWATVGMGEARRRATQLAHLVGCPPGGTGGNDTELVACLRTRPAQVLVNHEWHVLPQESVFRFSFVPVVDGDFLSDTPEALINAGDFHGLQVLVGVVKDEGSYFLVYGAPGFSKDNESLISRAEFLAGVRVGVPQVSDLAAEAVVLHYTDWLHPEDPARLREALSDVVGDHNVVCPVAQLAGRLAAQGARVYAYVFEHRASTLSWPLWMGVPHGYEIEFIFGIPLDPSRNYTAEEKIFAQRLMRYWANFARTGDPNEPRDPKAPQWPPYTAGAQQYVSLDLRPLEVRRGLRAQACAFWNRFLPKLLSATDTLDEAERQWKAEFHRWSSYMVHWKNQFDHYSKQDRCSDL

SMILES | IC50 [µM]
C/C=C1\[C@H]2C=C(C)C[C@]1(NC1OCC3=C4CC(C)(C)[C@H](O)[C@H]4[C@@H](C)CCC31O)c1ccc(=O)[nH]c1C2 (stereo not given in full) | 0.06
C/C=C1\[C@H]2C=C(C)C[C@]1(N[C@H]1OC(=O)C3=C4CC(C)(C)C[C@H]4[C@@H](C)[C@@H](O)C[C@]31OC)c1ccc(=O)[nH]c1C2 | 0.99
C/C=C1\[C@H]2C=C(C)C[C@]1(NC1OCC3=C4CC(C)(C)C[C@H]4[C@@H](C)[C@H](O)CC31O)c1ccc(=O)[nH]c1C2 (stereo not given in full) | 0.11
C/C=C1\[C@H]2C=C(C)C[C@]1(N[C@H]1OC(=O)C3=C4CC(C)(C)C[C@H]4[C@@H](C)[C@@H](O)C[C@]31O)c1ccc(=O)[nH]c1C2 | 2.17
C/C=C1/[C@@H]2Cc3[nH]c(=O)ccc3[C@@]1(N)C[C@]1(C)O[C@H]21 | 12.1
